Experimental data published in article PMC9344893 (ACS Medicinal Chemistry Letters, 2022).

What was measured:
[1] = target: SARS-CoV-2 Nsp14 MTase (Severe acute respiratory syndrome coronavirus 2, UniProt P0DTD1); assay type: biochemical
[2] = system: A549/ACE2/TMPRSS2 cells; experiment: Cell viability assay; assay type: cell-based
[3] = system: SARS-CoV-2 isolate USA-WA1/2020
[4] = system: panel of 10 human MTases; experiment: Human MTase screening, panel as a whole; assay type: biochemical; details: 10 μM

With `Nc1ncnc2c1ncn2[C@@H]1O[C@H](CNS(=O)(=O)c2ccc3nc(Cl)ccc3c2)[C@@H](O)[C@H]1O` [Compound 5] the “fold reduction in inhibitory activity” value [1] was 7 fold.

For `CC(=O)Nc1ncnc2c1ncn2[C@@H]1O[C@H](CNS(=O)(=O)c2ccc3ccccc3c2)[C@@H](OC(C)=O)[C@H]1OC(C)=O` [Compound 9], the “cytotoxicity at 100 μM (in words)” value [2] was “minimal cytotoxicity”.

`Nc1ncnn2c([C@@H]3O[C@H](CNS(=O)(=O)c4ccc5ccccc5c4)[C@@H](O)[C@H]3O)ccc12` [Compound 10] was tested, and the “therapeutic index (TI = CC50/EC50)” value ([3]; A549 AT cells) was “greater than 139”.

In the case of `Nc1ncnc2c1ncn2[C@@H]1O[C@H](C[C@@H](N)CC[C@H](N)C(=O)O)[C@@H](O)[C@H]1O` [sinefungin, reference compound], the “antiviral activity (in words)” value [3] was “failed to show any activity”.

`Nc1ncnc2c1ncn2[C@@H]1O[C@H](CNS(=O)(=O)c2ccc3ccccc3c2)[C@@H](O)[C@H]1O` [Compound 3] was tested, and the “fold more active than compound 1” value [1] was greater than 150 fold and the “inhibition of the set of human MTases (in words)” value [4] was “minimal inhibition”.

With `CC(=O)O[C@@H]1[C@H](OC(C)=O)[C@@H](CNS(=O)(=O)c2ccc3ccccc3c2)O[C@H]1n1cnc2c(N)ncnc21` [Compound 8] the “cytotoxicity at 100 μM (in words)” value [2] was “minimal cytotoxicity”.
